The source of these data is PubChem BioAssay (NCI).

Among the test systems are HOP-62 NSCLC; ACHN renal; NCI-H460 lung; HOP-18 NSCLC; TK-10 renal; HCT-15 colon; M19-MEL melanoma; A498 renal.
Assay in all cases: growth of human tumour cells (NCI), 48 h

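Where inhibition never reached the appropriate level, the endpoint shown equals the highest concentration tested. Otherwise, values were interpolated linearly from a five-concentration, 48-hour dose response in 96-well plates. GI50 = concentration required for 50% inhibition of growth. TGI is the concentration that stops growth completely.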 Some results are limits rather than exact numbers.

For `CCCCCCCCCCCCNC(=S)OC`, the TGI in the test on HOP-62 NSCLC came to 31.9 µM; in the test with ACHN renal it was 33 µM; in the test with NCI-H460 lung it was 31.2 µM; in the test with HOP-18 NSCLC it was 32.3 µM; in the test with TK-10 renal it was 34.5 µM; in the test on HCT-15 colon it was 27.7 µM. Also, the TGI was 32.7 µM in the test with M19-MEL melanoma and 31.6 µM with A498 renal.
With `O=c1c2cccnc2ncn1CCN1CCCCC1`, the TGI with HOP-62 NSCLC, with ACHN renal, in the test on NCI-H460 lung, with TK-10 renal and in the test with M19-MEL melanoma was over 100 µM throughout.
`COc1cc2c(cc1O)[C@H](C)C(c1ccc(OC)c(OC)c1)O2` (stereo partly drawn): the TGI in the test with HOP-62 NSCLC was over 100 µM; with ACHN renal, 22.4 µM; in the test on NCI-H460 lung it was 4.87 µM; in the test with HOP-18 NSCLC it was 20 µM; in the test with TK-10 renal, 30.1 µM; with HCT-15 colon, 13.3 µM. In addition, the TGI is 12.2 µM with M19-MEL melanoma and over 100 µM in the test on A498 renal.
In the case of `N#CCCC[Si]12OCCN(CCO1)CCO2`, the TGI in the test on ACHN renal, in the test with NCI-H460 lung, with HOP-18 NSCLC, in the test with TK-10 renal, in the test on M19-MEL melanoma and with A498 renal was over 100 µM each time.
`CN(C)CC1CCC/C1=N/OC(=O)c1ccccc1` (stereo not drawn): the TGI with HOP-62 NSCLC, in the test with ACHN renal, in the test with NCI-H460 lung, in the test on HOP-18 NSCLC, in the test on TK-10 renal and with HCT-15 colon was over 100 µM throughout. Besides, the TGI in the test on M19-MEL melanoma and in the test with A498 renal was over 100 µM in each case.
Regarding `O=S1C(=c2ccc(=C3Sc4ccccc4S3)cc2)Sc2ccccc21` (stereo not drawn), the TGI in the test on HOP-62 NSCLC is 31.6 µM; in the test with ACHN renal, 37.6 µM; with NCI-H460 lung, over 54.8 µM; in the test on HOP-18 NSCLC it was over 100 µM; in the test on TK-10 renal it was over 100 µM; in the test with HCT-15 colon, 28.9 µM. Besides, the TGI was 38.3 µM with M19-MEL melanoma and 30.2 µM in the test on A498 renal.
On to `S=P1(Oc2ccccc2)NNP2(=NP(N3CC3)(N3CC3)=NP(N3CC3)(N3CC3)=N2)NN1` (stereo not drawn), for which the TGI in the test with HOP-62 NSCLC, in the test with ACHN renal, in the test on NCI-H460 lung, in the test with HOP-18 NSCLC, with TK-10 renal and in the test with HCT-15 colon was over 100 µM each time. The TGI in the test on M19-MEL melanoma and in the test with A498 renal was over 100 µM each time.
With `CCOC(=O)/C(=C/c1ccc(OC)cc1)N(CC)CC`, the TGI with HOP-62 NSCLC, in the test with ACHN renal, in the test on NCI-H460 lung, in the test on TK-10 renal, in the test with HCT-15 colon and in the test with M19-MEL melanoma was over 100 µM throughout. The compound also displayed a TGI with A498 renal of over 100 µM.
Regarding `O=C(/C=C/c1c(O)ccc2ccccc12)c1ccc([N+](=O)[O-])cc1`, the TGI was over 100 µM in the test on HOP-62 NSCLC; 54 µM in the test on ACHN renal; over 100 µM in the test on NCI-H460 lung; 47.6 µM in the test with HOP-18 NSCLC; over 96.4 µM with TK-10 renal; over 66.8 µM in the test on HCT-15 colon. The figures for the TGI with M19-MEL melanoma and in the test with A498 renal were 35.4 µM and over 100 µM, respectively.
As for `O=C1C(C(Nc2ccccc2)c2ccccc2)=C([O-])c2ccccc21.O=C1C(C(Nc2ccccc2)c2ccccc2)=C([O-])c2ccccc21.[Cu+2]` (stereo not drawn), the GI50 in the test with HOP-62 NSCLC was over 100 µM; in the test on ACHN renal, 86.2 µM; with NCI-H460 lung, 40 µM; in the test with HOP-18 NSCLC, over 100 µM; in the test with TK-10 renal, over 100 µM; in the test on HCT-15 colon, 52.4 µM. Further, the figures for the GI50 in the test on M19-MEL melanoma and with A498 renal were over 100 µM and 30.6 µM, respectively. The TGI with HOP-62 NSCLC, in the test with ACHN renal, with NCI-H460 lung, with HOP-18 NSCLC, in the test on TK-10 renal and in the test on HCT-15 colon was over 100 µM throughout. In addition, the TGI with M19-MEL melanoma and in the test with A498 renal was over 100 µM throughout.
On to `CC(=O)OCCOCNC(=S)N/N=C/c1ccc([N+](=O)[O-])o1`, for which the TGI in the test on HOP-62 NSCLC, with ACHN renal, in the test with NCI-H460 lung, in the test with HOP-18 NSCLC, in the test on TK-10 renal and in the test on HCT-15 colon was over 100 µM throughout. Further, the TGI in the test with M19-MEL melanoma was 31 µM; in the test on A498 renal, over 100 µM.
With `COCCOCOC(CCCCO)c1cc(C)c(O[Si](C)(C)C(C)(C)C)c(C)c1` (stereo not drawn), the TGI with HOP-62 NSCLC stood at 23 µM; with ACHN renal, 21.6 µM; in the test on NCI-H460 lung it was 20.2 µM; with HOP-18 NSCLC it was 30.8 µM; in the test with TK-10 renal it was 27.3 µM; in the test on HCT-15 colon, 21.1 µM. The TGI was determined as 18 µM in the test with M19-MEL melanoma and 26.9 µM in the test with A498 renal.
As for `CNC(=O)NCCCC(NC(C)=O)C(=O)NCc1ccccc1` (stereo not drawn), the TGI in the test with HOP-62 NSCLC, in the test on ACHN renal, with NCI-H460 lung, in the test with TK-10 renal, in the test with HCT-15 colon and in the test on M19-MEL melanoma was over 100 µM throughout. This compound also showed a TGI with A498 renal of over 100 µM.
Take `Cc1ccc(S(=O)(=O)N2CCC2c2ccccc2)cc1` (stereo not drawn): the TGI in the test with HOP-62 NSCLC, with ACHN renal, in the test on NCI-H460 lung, with HOP-18 NSCLC, in the test on TK-10 renal and in the test on HCT-15 colon was over 100 µM in each case. In addition, the TGI in the test on M19-MEL melanoma and in the test with A498 renal was over 100 µM each time.
As to `CC1(C)CC(c2c[nH]c3ccccc23)=CC2=Nc3ccccc3C21O` (stereo not drawn), the TGI in the test with HOP-62 NSCLC, in the test on ACHN renal, in the test with NCI-H460 lung, with TK-10 renal, in the test with HCT-15 colon and in the test with M19-MEL melanoma was over 100 µM each time. Besides, the TGI with A498 renal is over 100 µM.
As for `C[C@@]1(O)CC[C@]2(C)C3CCCC3[C@H]12` (stereo partly drawn), the TGI in the test with HOP-62 NSCLC, with ACHN renal, in the test with NCI-H460 lung, in the test with HOP-18 NSCLC, with TK-10 renal and with HCT-15 colon was over 100 µM in each case. In addition, the TGI in the test on M19-MEL melanoma and in the test with A498 renal was over 100 µM in each case.
